From US20240024273A1, “TOPICAL ADMINISTRATION OF 2-(DIETHYLAMINO)ETHYL 2-(4-ISOBUTYLPHENYL)PROPRIONATE FOR TREATMENT OF DISEASES” (TECHFIELDS PHARMA CO., LTD., priority 2020, published 2024)

Test system: Mild to Moderate Osteoarthritis of the Knee
Experiment: Phase 2 study: WOMAC joint stiffness subscale score
Format: in vivo, human
Details: for Change of WOMAC Joint Stiffness score from baseline (±SEM), adjusted by […] of the Testing Drug Amount / Percentage of improvement from baseline, WOMAC Joint Stiffness score, adjusted by […] of the Testing Drug Amount / Change of WOMAC Joint Stiffness score from baseline (±SEM) / Percentage of improvement from baseline, WOMAC Joint Stiffness score: 35 mg/knee (BID); for Change of WOMAC Joint Stiffness score from baseline (±SEM) / Percentage of improvement from baseline, WOMAC Joint Stiffness score: all patients taken as active; for WOMAC Joint Stiffness Subscale Score, Avg.: Avg. of all patients; for WOMAC Joint Stiffness Subscale Score, Avg. / WOMAC Joint Stiffness Subscale Score: blinded; for WOMAC Joint Stiffness Subscale Score: individual patient
Text: This is a Phase 2, multicenter, randomized, double blind (within dose), placebo controlled, parallel group, proof of concept, and dose range finding study to evaluate the efficacy, safety, and PK of 2-(diethylamino)ethyl 2-(4-isobutylphenyl)propionate hydrochloride spray in adult subjects with clinically symptomatic mild to moderate OA of the knee. For subjects with bilateral knee pain, both knees will be treated, but the most symptomatic knee (i.e., the most painful knee as measured by the Western Ontario and McMaster University Osteoarthritis Index [WOMAC® 3.1] pain subscale score at Screening) will be designated as the target knee for efficacy analyses. For subjects with unilateral knee pain, only the symptomatic (target) knee will be treated.
After a Screening Period of up to 3 weeks and radiographic evaluation of the target knee joint space, a subject will be randomly assigned to 1 of 3 treatment groups in a 1:1:1 ratio with a 2:1 ratio of active:placebo within each treatment group (ie, 2 subjects to active treatment and 1 subject to placebo): • Group A: 8.75 mg 2-(diethylamino)ethyl 2-(4-isobutylphenyl)propionate/knee (2 sprays/knee, one spray to the medial surface and one spray to the lateral surface of the knee), twice daily (BID, approximately every 12 hours; n=50) or placebo (2 sprays/knee), BID (approximately every 12 hours; n=25) for a total of 4 sprays per knee per day; • Group B: 17.5 mg 2-(diethylamino)ethyl 2-(4-isobutylphenyl)propionate/knee (4 sprays/knee, one spray to the medial surface and one spray to the lateral surface of the knee, and one spray to front and one spray to the back of the knee), BID (approximately every 12 hours; n=50) or placebo (4 sprays/knee), BID (approximately every 12 hours; n=25) for a total of 8 sprays per knee per day; • Group C: 35 mg 2-(diethylamino)ethyl 2-(4-isobutylphenyl)propionate/knee (8 sprays/knee, each spray is to be applied to a different non-overlapping area around the knee, and the areas are to be uniformly distributed around the knee), BID (approximately every 12 hours; n=50) or placebo (8 sprays/knee), BID (approximately every 12 hours; n=25) for a total of 16 sprays per knee per day.
The VAS version of the WOMAC will be used for the Primary and Secondary Efficacy Endpoints. Efficacy endpoints will be assessed at Screening and Baseline (Day 1) and at the Week 2, Week 4, Week 8, and Week 12/EOS visits.
3.9.2. Secondary Efficacy Endpoints: • 1. Change from Baseline in the WOMAC (VAS) pain subscale score for the target knee at 2, 4, and 8 weeks of treatment; • 2. Change from Baseline in the WOMAC (VAS) stiffness subscale scores for the target knee and WOMAC (VAS) functional ability subscale scores at 2, 4, 8, and 12 weeks of treatment; • 3. Change from Baseline in the overall WOMAC (VAS) score at 2, 4, 8, and 12 weeks of treatment.
The Secondary Efficacy Endpoints, change from Baseline in the WOMAC subscale scores for pain, stiffness, and functional ability, and overall WOMAC score at 2, 4, 8, and 12 weeks of treatment, will be analyzed using the same methods as for the Primary Efficacy Endpoint.
To determine this, we assumed that all patients received 2-(diethylamino)ethyl 2-(4-isobutylphenyl)propionate, active drug treatment (i.e. all patients who received 2-(diethylamino)ethyl 2-(4-isobutylphenyl)propionate or placebo treatment for 12 weeks or mixed up treatment during the 12-week treatment, as 2-(diethylamino)ethyl 2-(4-isobutylphenyl)propionate-treated). Based on this assumption, that is, to treat this trial as an open-label study and that all patients received active treatment, we conducted efficacy analysis using top-line efficacy datasets prepared by CRO and the re-analysis results are presented in the following tables (Tables 29-47). […] (William G. Bensen, Justus J. Fiechtner, James 1. McMillen, et. al. Treatment of Osteoarthritis with Celecoxib. Mayo Clin Proc, November 1999. Vol 74, 1095-1105.)

[1] = Middle Dose (4 spray/knee, 17.5 mg/knee) Cohort, Day 1
[2] = Middle Dose (4 spray/knee, 17.5 mg/knee) Cohort, Week 2

CCN(CC)CCOC(=O)C(C)c1ccc(CC(C)C)cc1 (centres unmarked) [2-(diethylamino)ethyl 2-(4-isobutylphenyl)propionate]
Change of WOMAC Joint Stiffness score from baseline (±SEM), adjusted by […] of the Testing Drug Amount (Week 8 (day 56)): −36.9(±5.8) mm
Percentage of improvement from baseline, WOMAC Joint Stiffness score, adjusted by […] of the Testing Drug Amount (Week 8 (day 56)): −59.3%
Change of WOMAC Joint Stiffness score from baseline (±SEM) (Week 8 (day 56)): −21.5(±3.4) mm
Percentage of improvement from baseline, WOMAC Joint Stiffness score (Week 8 (day 56)): −34.6%
Change of WOMAC Joint Stiffness score from baseline (±SEM), adjusted by […] of the Testing Drug Amount (Week 12 (day 84)): −41.2(±5.7) mm
Percentage of improvement from baseline, WOMAC Joint Stiffness score, adjusted by […] of the Testing Drug Amount (Week 12 (day 84)): −66.2%
Change of WOMAC Joint Stiffness score from baseline (±SEM) (Week 12 (day 84)): −24.0(±3.3) mm
Percentage of improvement from baseline, WOMAC Joint Stiffness score (Week 12 (day 84)): −38.6%
reduction of Stiffness WOMAC from baseline to week 12 (5 patients on second batch active drug kits): 58.6-100%
WOMAC Joint Stiffness Subscale Score, Avg. (35 mg/knee (8 spray/knee), Day 1): 62.1
WOMAC Joint Stiffness Subscale Score, Avg. (35 mg/knee (8 spray/knee), Follow-up): 37.7
WOMAC Joint Stiffness Subscale Score, Avg. (35 mg/knee (8 spray/knee), Week 2): 50.8
WOMAC Joint Stiffness Subscale Score, Avg. (35 mg/knee (8 spray/knee), Week 4): 44.5
WOMAC Joint Stiffness Subscale Score, Avg. (35 mg/knee (8 spray/knee), Week 8): 40.6
WOMAC Joint Stiffness Subscale Score, Avg. (35 mg/knee (8 spray/knee), Week 12): 38.1
WOMAC Joint Stiffness Subscale Score, Avg. [1]: 68.0
WOMAC Joint Stiffness Subscale Score, Avg. (Middle Dose (4 spray/knee, 17.5 mg/knee) Cohort, Follow-up): 41.9
WOMAC Joint Stiffness Subscale Score, Avg. [2]: 49.2
WOMAC Joint Stiffness Subscale Score, Avg. (Middle Dose (4 spray/knee, 17.5 mg/knee) Cohort, Week 4): 44.7
WOMAC Joint Stiffness Subscale Score, Avg. (Middle Dose (4 spray/knee, 17.5 mg/knee) Cohort, Week 8): 41.5
WOMAC Joint Stiffness Subscale Score, Avg. (Middle Dose (4 spray/knee, 17.5 mg/knee) Cohort, Week 12): 38.2
WOMAC Joint Stiffness Subscale, WOMAC VAS Score (Patient 1056, second batch active drug kits, Day 1): 48.5 mm
WOMAC Joint Stiffness Subscale, WOMAC VAS Score (Patient 1056, second batch active drug kits, Follow Up): 17.0 mm
WOMAC Joint Stiffness Subscale, WOMAC VAS Score (Patient 1056, second batch active drug kits, Week 2): 45.0 mm
WOMAC Joint Stiffness Subscale, WOMAC VAS Score (Patient 1056, second batch active drug kits, Week 4): 44.5 mm
WOMAC Joint Stiffness Subscale, WOMAC VAS Score (Patient 1056, second batch active drug kits, Week 8): 43.5 mm
WOMAC Joint Stiffness Subscale, WOMAC VAS Score (Patient 1056, second batch active drug kits, Week 12): 23.5 mm
WOMAC Joint Stiffness Subscale, WOMAC VAS Score (Patient 1064, second batch active drug kits, Day 1): 66.5 mm
WOMAC Joint Stiffness Subscale, WOMAC VAS Score (Patient 1064, second batch active drug kits, Follow Up): 1.0 mm
WOMAC Joint Stiffness Subscale, WOMAC VAS Score (Patient 1064, second batch active drug kits, Week 2): 20.5 mm
WOMAC Joint Stiffness Subscale, WOMAC VAS Score (Patient 1064, second batch active drug kits, Week 4): 12.5 mm
WOMAC Joint Stiffness Subscale, WOMAC VAS Score (Patient 1064, second batch active drug kits, Week 8): 0.0 mm
WOMAC Joint Stiffness Subscale, WOMAC VAS Score (Patient 1064, second batch active drug kits, Week 12): 1.0 mm
WOMAC Joint Stiffness Subscale, WOMAC VAS Score (Patient 1535, second batch active drug kits, Day 1): 55.0 mm
WOMAC Joint Stiffness Subscale, WOMAC VAS Score (Patient 1535, second batch active drug kits, Follow Up): 0.0 mm
WOMAC Joint Stiffness Subscale, WOMAC VAS Score (Patient 1535, second batch active drug kits, Week 2): 3.5 mm
WOMAC Joint Stiffness Subscale, WOMAC VAS Score (Patient 1535, second batch active drug kits, Week 4): 3.0 mm
WOMAC Joint Stiffness Subscale, WOMAC VAS Score (Patient 1535, second batch active drug kits, Week 8): 3.0 mm
WOMAC Joint Stiffness Subscale, WOMAC VAS Score (Patient 1535, second batch active drug kits, Week 12): 0.0 mm
WOMAC Joint Stiffness Subscale, WOMAC VAS Score (Patient 1539, second batch active drug kits, Day 1): 70.0 mm
WOMAC Joint Stiffness Subscale, WOMAC VAS Score (Patient 1539, second batch active drug kits, Follow Up): 2.0 mm
WOMAC Joint Stiffness Subscale, WOMAC VAS Score (Patient 1539, second batch active drug kits, Week 2): 54.5 mm
WOMAC Joint Stiffness Subscale, WOMAC VAS Score (Patient 1539, second batch active drug kits, Week 4): 44.0 mm
WOMAC Joint Stiffness Subscale, WOMAC VAS Score (Patient 1539, second batch active drug kits, Week 8): 8.0 mm
WOMAC Joint Stiffness Subscale, WOMAC VAS Score (Patient 1539, second batch active drug kits, Week 12): 3.0 mm
WOMAC Joint Stiffness Subscale, WOMAC VAS Score (Patient 9032, second batch active drug kits, Day 1): 14.5 mm
WOMAC Joint Stiffness Subscale, WOMAC VAS Score (Patient 9032, second batch active drug kits, Follow Up): 9.5 mm
WOMAC Joint Stiffness Subscale, WOMAC VAS Score (Patient 9032, second batch active drug kits, Week 2): 9.5 mm
WOMAC Joint Stiffness Subscale, WOMAC VAS Score (Patient 9032, second batch active drug kits, Week 4): 5.0 mm
WOMAC Joint Stiffness Subscale, WOMAC VAS Score (Patient 9032, second batch active drug kits, Week 8): 3.0 mm
WOMAC Joint Stiffness Subscale, WOMAC VAS Score (Patient 9032, second batch active drug kits, Week 12): 6.0 mm
WOMAC Joint Stiffness Subscale Score [1]: 64.5
WOMAC Joint Stiffness Subscale Score [2]: 62.0
